Measured values taken from US7105675B2, “Pyridomorphinans, thienomorphinans and use thereof” (Southern Research Institute, priority 1999, dated 2006).
Read-outs that look alike come from different tables or passages of the source.

What was measured:
δ opioid receptor = δ opioid receptor (Rattus norvegicus, UniProt P33533); assay: Radioligand binding, delta sites, displacement of [3H]DADLE in rat brain membranes; design: Rat membranes were prepared each day using a partially thawed frozen rat brain; from tissue; host or cells: rat brain membranes; details: for Selectivity Ratio κ1δ / Selectivity Ratio μ/δ: ratio of Ki values
Description: (§1) Radioligand Binding Assays. Mu binding sites were labeled using [^3H]DAMGO (1–3 nM). Rat membranes were prepared each day using a partially thawed frozen rat brain which was homogenized with a polytron in 10 mL/brain of ice cold 10 mM Tris-HCl, pH 7.0. Membranes were then centrifuged twice at 30,000 g for 10 min and resuspended with ice-cold buffer following each centrifugation. After the second centrifugation, the membranes were resuspended in 50 mM Tris-HCl, pH 7.4 (50 mL/brain) at 25° C. Incubations proceeded for 2 h at 25° C. in 50 mM Tris-HCl, pH 7.4, along with a protease inhibitor cocktail (PIC). The nonspecific binding was determined using 20 μM of levallorphan. Delta binding sites were labeled using [^3]DADLE (2 nM) and rat brain membranes. Rat membranes were prepared each day using a partially thawed frozen rat brain which was homogenized with a polytron in 10 mL/brain of ice cold 10 mM Tris-HCl, pH 7.0. Membranes were then centrifuged twice at 30,000 g for 10 min and resuspended with ice-cold buffer following each centrifugation. After the second centrifugation, the membranes were resuspended in 50 mM Tris-HCl, pH 7.4 (50 mL/brain) at 25° C. Incubations proceeded for 2 h at 25° C. in 50 mM Tris-HCl pH 7.4, containing 100 mM choline chloride, 3 mM MnCl2, and 100 nM DAMGO to block binding to μ sites, and PIC. Nonspecific binding was determined using 20 μM levallorphan. Kappa binding sites were labeled using [^3H]U69,593 (2 nM). Guinea pig brain membranes were prepared each day using partially thawed guinea pig brain which was homogenized with a polytron in 10 mL/brain of ice cold 10 mM Tris-HCl pH 7.0. The membranes were then centrifuged twice at 30,000 g for 10 min and resuspended with ice-cold buffer following each centrifugation. After the second centrifugation, the membranes were resuspended in 50 mM Tris-HCl, pH 7.4 (75 mL/brain) at 25° C. Incubations proceeded for 2 h at 25° C. in 50 mM Tris-HCl, pH 7.4, containing 1 μg/mL of captopril and PIC. Nonspecific binding was determined using 1 μM U69,593. Each ^3H ligand was displaced by 8–10 concentrations of test drug, two times. Compounds were prepared as 1 mM solution with 10 mM Tris buffer (pH 7.4) containing 10% DMSO before drug dilution. All drug dilutions were done at 10 mM Tris-HCl, pH 7.4, containing 1 mg/mL bovine serum albumin. All washes were done with ice-cold 10 mM Tris-HCl, pH 7.4. The IC50 and slope factor (N) were obtained by using the program MLAB-PC (Civilized Software, Bethesda, Md.). Ki values were calculated according to the equation Ki=IC50/(1+[L]/Kd).

μ opioid receptor = target: T1, μ opioid receptor (Rattus norvegicus, UniProt P33535); assay: Radioligand binding, mu sites, displacement of [3H]DAMGO in rat brain membranes
T1 construct: Rat membranes were prepared each day using a partially thawed frozen rat brain; from tissue; host or cells: rat brain membranes
Description: as §1

κ1 opioid receptor = target: T2, κ1 opioid receptor (Cavia porcellus, UniProt P41144); assay: Radioligand binding, kappa sites, displacement of [3H]U69,593 in guinea pig brain membranes
T2 construct: Guinea pig brain membranes were prepared each day using partially thawed guinea pig brain; from tissue; host or cells: guinea pig brain membranes
Description: as §1

[1] = target: T3, δ opioid receptor (DPDPE) in MVD (Mus musculus, UniProt P32300); assay: Antagonist activity against DPDPE in electrically stimulated mouse vas deferens (MVD); format: cell-based; details: for antagonist activity DPDPE (δ) MVD IC50 ratio: 1 μM compound, 30 min incubation, IC50 of DPDPE with antagonist divided by control IC50; for Ke selectivity ratio μδ: Ke GPI (μ) over Ke MVD (δ)
T3 construct: Electrically-induced smooth muscle contractions of mouse vas deferens and strips of guinea pig ileum longitudinal muscle myenteric plexus were used; from tissue; host or cells: mouse vas deferens (male ICR mice)
Description: (§2) Bioassays in GPI and MVD smooth muscle preparations. Electrically-induced smooth muscle contractions of mouse vas deferens and strips of guinea pig ileum longitudinal muscle myenteric plexus were used. Tissues came from maile ICR mice weighing 25–40 g and male Hartley guinea pigs weighing 250–500 g. The tissues were tied to gold chain with suture silk, suspended in 20 mL baths containing 37° C. oxygenated (95% O2, 5% CO2) Krebs bicarbonate solution (magnesium free for the MVD), and allowed to equilibrate for 15 min. The tissues were then stretched to optimal length previously determined to be 1 g tension (0.5 g for MVD) and allowed to equilibrate for 15 min. The tissues were stimulated transmurally between platinum wire electrodes at 0.1 Hz, 0.4 ms pulses (2-ms pulses for MVD), and supramaximal voltage. An initial dose-response curve of DPDPE or PL-017 was constructed at the start of each assay to establish tissue effects, allowing each tissue to be used as its own control.
(§3) Tissues not producing typical results were not used. Experimental compounds were added to the baths in 14–60 μL volumes. Succeeding doses of argonist were added cumulatively to the bath at 3 minute intervals to produce a concentration-response curve. The tissues were then washed extensively with fresh buffer until the original contraction height was re-established. […] Antagonist effects to DPDPE and PL-017 were assayed after incubation of the tissues with 1 μM concentration of the compound in the bath for 30 minutes. The tissues were then washed with fresh buffer for 30 min, and the agonist dose-response curve was repeated. Rightward shifts in the dose-response curves were calculated by dividing the antagonized dose-response curve IC50 value by the unantagoniced IC50 value. IC50 values represent the mean of two to four tissues. IC50 estimates and their associated standard errors were determined by using a computerized nonlinear least-squares method.

mouse vas deferens = assay: Agonist activity in MVD smooth muscle preparation, inhibition of contraction; format: cell-based; details: read-out: agonist activity MVD IC50 (nM) or % max resp
Description: as §2, §3

[2] = test system: guinea pig ileum longitudinal muscle myenteric plexus; assay: Agonist activity in GPI smooth muscle preparation, inhibition of contraction; format: cell-based; details: for inhibition at 1 µM: Cavia porcellus, read-out: agonist activity GPI IC50 (nM) or % max resp
Description: as §2, §3

[3] = test system: μ opioid receptor (PL017) in GPI; assay: Antagonist activity against PL-017 in electrically stimulated guinea pig ileum (GPI); format: cell-based; details: for antagonist activity PL017 (μ) GPI IC50 ratio: 1 μM compound, 30 min incubation, IC50 of PL-017 with antagonist divided by control IC50; for antagonist activity PL017 (μ) GPI Ke: Ke = [antagonist]/(IC50 ratio − 1), PL-017 as agonist, n = 3
Description: as §2, §3

[4] = pyridomorphinans, [3H]DAMGO (1.4–2.0 nM), rat brain membranes, read-out: Ki (nM) ± SEM μ
[5] = pyridomorphinans, [3H]U69,593 (1.2–2.2 nm), guinea pig brain membranes, read-out: Ki (nM) ± SEM κ1

T3 sequence (P32300 whole entry): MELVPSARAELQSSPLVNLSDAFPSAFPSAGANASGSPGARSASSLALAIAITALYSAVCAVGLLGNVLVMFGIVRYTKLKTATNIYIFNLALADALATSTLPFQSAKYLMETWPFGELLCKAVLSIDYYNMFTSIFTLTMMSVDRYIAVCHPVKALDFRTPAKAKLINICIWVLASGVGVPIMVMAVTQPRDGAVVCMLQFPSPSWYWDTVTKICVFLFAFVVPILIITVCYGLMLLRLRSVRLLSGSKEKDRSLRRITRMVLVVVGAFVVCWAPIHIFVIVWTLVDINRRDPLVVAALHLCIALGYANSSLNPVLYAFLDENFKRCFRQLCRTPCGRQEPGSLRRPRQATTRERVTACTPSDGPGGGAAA
T1 sequence (P33535 whole entry): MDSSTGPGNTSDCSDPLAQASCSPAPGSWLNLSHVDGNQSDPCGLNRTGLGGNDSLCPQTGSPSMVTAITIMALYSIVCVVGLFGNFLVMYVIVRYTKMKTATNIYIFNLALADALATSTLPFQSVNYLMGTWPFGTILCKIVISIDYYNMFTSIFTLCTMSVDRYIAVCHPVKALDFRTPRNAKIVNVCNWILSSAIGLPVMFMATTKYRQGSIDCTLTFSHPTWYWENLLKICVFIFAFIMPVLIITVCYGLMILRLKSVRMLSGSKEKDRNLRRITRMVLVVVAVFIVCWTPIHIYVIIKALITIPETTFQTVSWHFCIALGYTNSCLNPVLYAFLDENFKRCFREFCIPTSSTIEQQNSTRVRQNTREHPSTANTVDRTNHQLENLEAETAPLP
Sequence of δ opioid receptor (P33533 whole entry): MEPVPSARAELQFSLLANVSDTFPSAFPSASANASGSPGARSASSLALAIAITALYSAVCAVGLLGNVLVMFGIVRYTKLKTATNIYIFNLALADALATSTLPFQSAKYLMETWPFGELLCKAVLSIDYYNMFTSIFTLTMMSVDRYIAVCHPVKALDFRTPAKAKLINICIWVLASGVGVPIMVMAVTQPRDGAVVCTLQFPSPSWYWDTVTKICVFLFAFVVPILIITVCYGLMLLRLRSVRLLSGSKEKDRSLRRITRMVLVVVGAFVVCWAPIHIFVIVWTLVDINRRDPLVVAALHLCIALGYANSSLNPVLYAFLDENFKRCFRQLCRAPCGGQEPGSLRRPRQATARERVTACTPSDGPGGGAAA
T2 sequence (P41144 whole entry): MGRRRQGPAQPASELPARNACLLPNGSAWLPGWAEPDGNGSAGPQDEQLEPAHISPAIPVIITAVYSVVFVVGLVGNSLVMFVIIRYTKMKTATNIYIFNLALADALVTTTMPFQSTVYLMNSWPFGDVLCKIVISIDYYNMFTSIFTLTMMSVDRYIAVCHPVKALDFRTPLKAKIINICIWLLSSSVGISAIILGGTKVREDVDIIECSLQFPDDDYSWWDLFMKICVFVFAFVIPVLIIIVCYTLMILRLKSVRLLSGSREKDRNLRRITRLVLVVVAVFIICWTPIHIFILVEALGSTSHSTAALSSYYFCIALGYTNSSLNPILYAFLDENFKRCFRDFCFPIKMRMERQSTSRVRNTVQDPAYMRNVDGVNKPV

| SMILES | Ki (δ opioid receptor) [nM] | Selectivity Ratio κ1δ (δ opioid receptor; thienomorphinans) | Selectivity Ratio μ/δ (δ opioid receptor; thienomorphinans) | Ki (μ opioid receptor) [nM] | Ki (κ1 opioid receptor) [nM] | Kb [1] [nM] | antagonist activity DPDPE (δ) MVD IC50 ratio [1] | Ke selectivity ratio μδ [1] | inhibition at 1 µM (mouse vas deferens) [%] | inhibition at 1 µM [2] [%] | antagonist activity PL017 (μ) GPI IC50 ratio [3] | antagonist activity PL017 (μ) GPI Ke [3] [nM] | Ki (δ opioid receptor; pyridomorphinans, [3H]DADLE (1.3–2.0 nM), rat brain membranes, 100 nM DAMGO to block μ-sites, read-out: Ki (nM) ± SEM δ) [nM] | Selectivity Ratio κ1δ (δ opioid receptor; pyridomorphinans) | Selectivity Ratio μ/δ (δ opioid receptor; pyridomorphinans) | Ki (μ opioid receptor; [4]) [nM] | Ki (κ1 opioid receptor; [5]) [nM] | agonist activity GPI IC50 (nM) or % max resp ([2]; percentage inhibition of contraction at 1 μM) [%] |
| --- | --- | --- | --- | --- | --- | --- | --- | --- | --- | --- | --- | --- | --- | --- | --- | --- | --- | --- |
| N#Cc1c(N)sc2c1[C@@H]1Oc3c(O)ccc4c3[C@@]13CCN(CC1CC1)[C@H](C4)[C@]3(O)C2 [Compound 8a, 5′-Amino-4′-cyano-17-(cyclopropylmethyl)-6,7-didehydro-3,14-dihydroxy-4,5α-epoxythieno [2′,3′:7,6]morphinan] | 2.6 ± 0.11 | 0.6 | 2.1 | 5.5 ± 0.2 | 1.5 ± 0.12 | 9.6 | 109.6 ± 12.1 | 0.9 | 0 | 0 | 160.3 ± 41.6 | 8.7 | – | – | – | – | – | – |
| Nc1cnc2c(c1)C[C@@]1(O)[C@H]3Cc4ccc(O)c5c4[C@@]1(CCN3CC1CC1)[C@H]2O5 [Compound 7f, 5′-Amino-17-(cyclopropylmethyl)-6,7-didehydro-3,14-dihydroxy-4,5α-epoxypyrido[2′,3′:6,7]morphinan] | – | – | – | – | – | 26 | 43.3 ± 9.0 | 1.9 | 6 | 0 | 23.4 ± 4.8 | 49 | 8 ± 0.3 | 1.5 | 1.6 | 12.8 ± 0.93 | 12 ± 1.2 | – |
| Nc1sc2c(c1C(=O)OCc1ccccc1)[C@@H]1Oc3c(O)ccc4c3[C@@]13CCN(CC1CC1)[C@H](C4)[C@]3(O)C2 [Compound 8d, 5′-Amino-4′-benzyloxycarbonyl-17-(cyclopropylmethyl)-6,7-didehydro-3,14-dihydroxy-4,5α-epoxythieno[2′,3′:7,6]morphinan] | 7 ± 0.3 | 6.9 | 8.7 | 61 ± 3 | 48 ± 3 | 5 | 289 ± 13 | – | 11 | 40 | – | – | – | – | – | – | – | 40 |
| O=[N+]([O-])c1cnc2c(c1)CC1(O)C3Cc4ccc(O)c5c4C1(CCN3CC1CC1)C2O5 (stereo not drawn) [Compound 7e, 17-(Cyclopropylmethyl)-6,7-didehydro-3,14-dihydroxy-4,5α-epoxy-5′-nitropyrido[2′,3′:6,7]morphinan] | 5.5 ± 0.67 | – | – | 17.5 ± 2 | 92 ± 12.8 | 51 | 20.7 ± 4.2 | 5.3 | 14 | 0 | 4.7 ± 0.59 | 271 | – | 17 | 3.2 | – | – | – |
| CCOC(=O)c1cnc2c(c1)C[C@@]1(O)[C@H]3Cc4ccc(O)c5c4[C@@]1(CCN3CC1CC1)[C@H]2O5 [Compound 7d, 5′-Carbethoxy-17-(cyclopropylmethyl)-6,7-didehydro-3,14-dihydroxy-4,5α-epoxypyrido[2′,3′:6,7]morphinan] | – | – | – | – | – | 20 | – | – | 0 | 0 | – | 74 | – | – | – | 37 ± 3.4 | 9.6 ± 0.93 | – |
| Oc1ccc2c3c1OC1c4ncc(Br)cc4CC4(O)C(C2)N(CC2CC2)CCC314 (stereo not drawn) [Compound 7b, 5′-Bromo-17-(cyclopropylmethyl)-6,7-didehydro-3,14-dihydroxy-4,5α-epoxypyrido[2′,3′:6,7]morphinan] | 1.2 ± 0.13 | – | – | 15.5 ± 1 | 55.7 ± 7 | 3.1 | 325 ± 127 | 14 | 0 | 0 | 43.9 ± 25.6 | 23 | – | 46 | 13 | – | – | – |
| N#Cc1cnc2c(c1)CC1(O)C3Cc4ccc(O)c5c4C1(CCN3CC1CC1)C2O5 (stereo not drawn) [Compound 7c, 5′-Cyano-17-(cyclopropylmethyl)-6,7-didehydro-3,14-dihydroxy-4,5α-epoxypyrido[2′,3′:6,7]morphinan] | 4.5 ± 0.28 | – | – | 16 ± 1.8 | 33.9 ± 2 | 44 | 23.6 ± 2.2 | – | 0 | 0 | 2.2 ± 1.1 | – | – | 7.5 | 3.6 | – | – | – |
